Legend:
PKA-Iβ = target: T1, PKA-Iβ (Homo sapiens, UniProt P31321); test: PKA activity assay, PKA-Iβ; format: biochemical; conditions: for EC50: read-out: Kact; for A (PKA activity): PKAIβ
T1 construct: made in house
Description: (§1) The recombinant human PKA catalytic subunit (Cα1) and the four human PKA regulatory subunits (RIα, RIβ, RIIα, RIIβ) were expressed, purified, and characterized as described. […] PKA holoenzymes were formed by mixing the R- and C-subunit at a molar ratio of 1.2:1 and extensive dialysis against 20 mM MOPS (pH 7.0), 150 mM NaCl, 2.5 mM β-mercaptoethanol, supplemented with 1 mM ATP and 10 mM MgCl2 for PKA-I at 4°C overnight. PKA holoenzymes were used at about 20 nM for the activation assay. The apparent activation constants (Kact) were determined by fitting the concentration-dependent activity to a sigmoid dose-response model.

PKA-IIβ = target: T2, PKA-IIβ (Homo sapiens, UniProt P31323); test: PKA activity assay, PKA-IIβ; format: biochemical; conditions: for EC50: read-out: Kact; for A (PKA activity): PKAIIβ
T2 construct: made in house
Description: as §1

PKA = test: Cellular PKA activity: P-VASP band shift in U2OS Epac1 and Epac2 cell lines; format: cell-based; conditions: for rel. P-VASP: PKA, average of Epac1 and Epac2 cell lines, relative to induction with forskolin and IBMX, Fig. 6C; for activation of PKA in cells: U2OS cell lines
Description: Rap•GTP levels were determined by precipitating GTP-bound Rap specifically from cell lysates and subsequent western Blotting with an α-Rap antibody (Santa Cruz Biotechnology). To generate stable cell lines, U2OS cells were transfected with pBabe-Flag-Epac1 (Epac1, homo sapiens, amino acids 1–881) or pBabe-Flag-Epac2 (Epac2, mus musculus, amino acids 1–993), selected for Epac expression and maintained under selection with 2 mg/l puromycin. The cells were cultured according to standard protocols. The activity of PKA was determined by western blotting with a monoclonal α-VASP antibody (BD Transduction Laboratories). Blots were developed by enhanced chemiluminescence (ECL) and the use of X-ray films; for quantification films were scanned. The intensities of the Rap•GTP bands and the upper band of VASP (P-VASP) were determined for each condition in ImageJ and normalized to the stimulation with forskolin and IBMX for each blot.

Epac2^fl = target: T3, Epac2^fl (Mus musculus, UniProt Q9EQZ6); test: Epac activation assay, full length Epac2; format: biochemical; set-up: made in house; conditions: for Rel. kmax: maximal activity relative to cAMP
T3 sequence (Q9EQZ6 1-993 isoform Q9EQZ6-3): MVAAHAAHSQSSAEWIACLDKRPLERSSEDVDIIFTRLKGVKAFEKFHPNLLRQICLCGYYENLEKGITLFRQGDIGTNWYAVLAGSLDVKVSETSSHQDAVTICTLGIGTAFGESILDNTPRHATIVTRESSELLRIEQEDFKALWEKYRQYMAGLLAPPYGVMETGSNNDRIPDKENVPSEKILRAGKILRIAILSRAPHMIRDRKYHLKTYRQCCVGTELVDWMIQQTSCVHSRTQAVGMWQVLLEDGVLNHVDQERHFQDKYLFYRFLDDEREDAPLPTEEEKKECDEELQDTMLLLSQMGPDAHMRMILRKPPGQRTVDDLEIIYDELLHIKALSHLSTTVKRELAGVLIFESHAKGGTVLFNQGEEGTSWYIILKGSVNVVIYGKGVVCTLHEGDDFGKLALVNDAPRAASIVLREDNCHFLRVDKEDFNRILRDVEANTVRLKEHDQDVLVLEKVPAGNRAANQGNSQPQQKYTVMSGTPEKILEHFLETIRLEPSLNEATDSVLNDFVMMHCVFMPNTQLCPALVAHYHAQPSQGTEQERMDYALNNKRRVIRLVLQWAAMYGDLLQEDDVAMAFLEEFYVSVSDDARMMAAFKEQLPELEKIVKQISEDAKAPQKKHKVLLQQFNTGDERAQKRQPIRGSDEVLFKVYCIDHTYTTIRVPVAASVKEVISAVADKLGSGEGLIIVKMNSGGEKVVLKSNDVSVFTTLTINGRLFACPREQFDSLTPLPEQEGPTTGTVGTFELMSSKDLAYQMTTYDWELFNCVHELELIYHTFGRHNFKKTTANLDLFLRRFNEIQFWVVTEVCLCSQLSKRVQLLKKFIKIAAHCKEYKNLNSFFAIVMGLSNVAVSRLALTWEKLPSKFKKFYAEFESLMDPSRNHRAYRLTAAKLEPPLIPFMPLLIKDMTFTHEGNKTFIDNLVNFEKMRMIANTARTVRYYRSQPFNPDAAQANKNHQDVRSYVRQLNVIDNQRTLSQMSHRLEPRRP
Description: Murine Epac2 was used as all previous structural studies were performed with it.
The activity of Epac was determined by a fluorescence assay. […] The fluorescence intensity of Rap1B•mGDP is approximately twice that of free mGDP, and thus, nucleotide exchange can be observed as a decay in fluorescence upon the addition of excess unlabeled GDP.

T1 sequence (P31321 whole entry): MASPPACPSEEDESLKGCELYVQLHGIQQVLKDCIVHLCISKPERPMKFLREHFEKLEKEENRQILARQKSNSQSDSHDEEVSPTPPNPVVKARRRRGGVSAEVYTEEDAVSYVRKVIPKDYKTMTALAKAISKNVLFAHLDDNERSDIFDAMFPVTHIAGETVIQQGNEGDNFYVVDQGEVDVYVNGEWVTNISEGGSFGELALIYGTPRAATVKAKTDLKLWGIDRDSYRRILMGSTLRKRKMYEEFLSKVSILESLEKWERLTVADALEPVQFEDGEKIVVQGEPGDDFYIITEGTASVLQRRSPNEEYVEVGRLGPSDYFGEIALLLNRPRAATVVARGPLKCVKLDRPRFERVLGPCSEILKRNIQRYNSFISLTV
T2 sequence (P31323 whole entry): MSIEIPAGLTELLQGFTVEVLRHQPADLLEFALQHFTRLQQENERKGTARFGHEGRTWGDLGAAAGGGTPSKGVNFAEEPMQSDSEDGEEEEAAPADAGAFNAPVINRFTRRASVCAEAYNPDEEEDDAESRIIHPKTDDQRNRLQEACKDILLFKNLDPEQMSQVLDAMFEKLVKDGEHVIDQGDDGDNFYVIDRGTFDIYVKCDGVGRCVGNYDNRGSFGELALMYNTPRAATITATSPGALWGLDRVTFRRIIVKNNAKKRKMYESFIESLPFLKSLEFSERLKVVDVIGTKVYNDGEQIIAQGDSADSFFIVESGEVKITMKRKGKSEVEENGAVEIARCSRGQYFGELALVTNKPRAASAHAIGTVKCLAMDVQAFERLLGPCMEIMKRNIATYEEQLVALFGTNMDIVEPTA

Nc1ncnc2c1nc(SCc1ccccc1)n2[C@@H]1O[C@@H]2CO[P@](O)(=S)O[C@H]2[C@H]1O [S-220, Sp-8-BnT-cAMPS]
Kact compared to cAMP (times higher) (PKA-Iβ; PKA-Iβ): three to eight times higher
EC50 (PKA-Iβ; PKA-Iβ): 0.29 µM
A (PKA activity) (PKA-Iβ; concentration 1 μM): 2.04E+01 U/mg
A (PKA activity) (PKA-Iβ; concentration 1.00E+01 μM): 2.34E+01 U/mg
A (PKA activity) (PKA-Iβ; concentration 1.00E-01 μM): 7.7375 U/mg
A (PKA activity) (PKA-Iβ; concentration 1.00E-02 μM): 4.3125 U/mg
A (PKA activity) (PKA-Iβ; concentration 1.00E-03 μM): 4.35 U/mg
A (PKA activity) (PKA-Iβ; concentration 1.00E-05 μM): 4.525 U/mg
A (PKA activity) (PKA-Iβ; concentration 1.70E-01 μM): 1.11E+01 U/mg
A (PKA activity) (PKA-Iβ; concentration 2.50E+02 μM): 2.32E+01 U/mg
A (PKA activity) (PKA-Iβ; concentration 2.50E-01 μM): 1.38E+01 U/mg
A (PKA activity) (PKA-Iβ; concentration 5.00E-01 μM): 1.59E+01 U/mg
Kact compared to cAMP (times higher / affinity reduced) (PKA-IIβ; PKA-IIβ): comparable affinities
EC50 (PKA-IIβ; PKA-IIβ): 0.21 µM
A (PKA activity) (PKA-IIβ; concentration 1 μM): 1.92E+01 U/mg
A (PKA activity) (PKA-IIβ; concentration 1.00E+01 μM): 2.49E+01 U/mg
A (PKA activity) (PKA-IIβ; concentration 1.00E-01 μM): 1.08E+01 U/mg
A (PKA activity) (PKA-IIβ; concentration 1.00E-02 μM): 5.378 U/mg
A (PKA activity) (PKA-IIβ; concentration 1.00E-03 μM): 4.482 U/mg
A (PKA activity) (PKA-IIβ; concentration 1.00E-04 μM): 4.9341 U/mg
A (PKA activity) (PKA-IIβ; concentration 1.00E-05 μM): 2.8563 U/mg
A (PKA activity) (PKA-IIβ; concentration 2.50E+02 μM): 2.44E+01 U/mg
A (PKA activity) (PKA-IIβ; concentration 2.50E-01 μM): 1.60E+01 U/mg
rel. P-VASP (PKA): 0.1961
activation of PKA in cells (PKA): very low
kobs (Epac2^fl; 0.001 μM compound): 1.9e-05 s⁻¹
kobs (Epac2^fl; 0.03 μM compound): 4.4e-05 s⁻¹
kobs (Epac2^fl; 0.04 μM compound): 4.9e-05 s⁻¹
kobs (Epac2^fl; 0.05 μM compound): 5.4e-05 s⁻¹
kobs (Epac2^fl; 0.06 μM compound): 6e-05 s⁻¹
kobs (Epac2^fl; 0.07 μM compound): 6.8e-05 s⁻¹
kobs (Epac2^fl; 0.08 μM compound): 6.9e-05 s⁻¹
kobs (Epac2^fl; 0.1 μM compound): 9.1e-05 s⁻¹
kobs (Epac2^fl; 0.2 μM compound): 0.00016 s⁻¹
kobs (Epac2^fl; 0.3 μM compound): 0.000217 s⁻¹
kobs (Epac2^fl; 0.4 μM compound): 0.000258 s⁻¹
kobs (Epac2^fl; 0.5 μM compound): 0.000295 s⁻¹
kobs (Epac2^fl; 0.6 μM compound): 0.000369 s⁻¹
kobs (Epac2^fl; 0.7 μM compound): 0.000402 s⁻¹
kobs (Epac2^fl; 0.8 μM compound): 0.000428 s⁻¹
kobs (Epac2^fl; 1 μM compound): 0.000509 s⁻¹
kobs (Epac2^fl; 2 μM compound): 0.000819 s⁻¹
kobs (Epac2^fl; 3 μM compound): 0.000975 s⁻¹
kobs (Epac2^fl; 4 μM compound): 0.00102 s⁻¹
kobs (Epac2^fl; 5 μM compound): 0.0011 s⁻¹
kobs (Epac2^fl; 6 μM compound): 0.00114 s⁻¹
kobs (Epac2^fl; 7 μM compound): 0.00118 s⁻¹
kobs (Epac2^fl; 8 μM compound): 0.00118 s⁻¹
kobs (Epac2^fl; 10 μM compound): 0.00125 s⁻¹
kobs (Epac2^fl; 20 μM compound): 0.00149 s⁻¹
kobs (Epac2^fl; 30 μM compound): 0.00153 s⁻¹
kobs (Epac2^fl; 40 μM compound): 0.00152 s⁻¹
kobs (Epac2^fl; 50 μM compound): 0.0015 s⁻¹
kobs (Epac2^fl; 60 μM compound): 0.00155 s⁻¹
kobs (Epac2^fl; 70 μM compound): 0.00155 s⁻¹
kobs (Epac2^fl; 80 μM compound): 0.00152 s⁻¹
kobs (Epac2^fl; 100 μM compound): 0.0015 s⁻¹
AC50 (Epac2^fl; Epac2^fl): 2.1 µM
potency relative to cAMP by activation potential (times more potently than cAMP) (Epac2^fl; Epac2^fl): 200 times
Rel. kmax (Epac2^fl; Epac2^fl): 6.6

COC1C2OP(=O)(O)OCC2OC1n1c(Sc2ccc(Cl)cc2)nc2c(N)ncnc21 [D-007, 8-pCPT-2′-O-Me-cAMP, reference compound]
EC50 (PKA-Iβ; PKA-Iβ): 18 µM
A (PKA activity) (PKA-Iβ; concentration 1 μM): 5.38 U/mg
A (PKA activity) (PKA-Iβ; concentration 1.00E+01 μM): 9.18 U/mg
A (PKA activity) (PKA-Iβ; concentration 1.00E+03 μM): 1.84E+01 U/mg
A (PKA activity) (PKA-Iβ; concentration 1.00E-01 μM): 5.43 U/mg
A (PKA activity) (PKA-Iβ; concentration 1.00E-03 μM): 4.7 U/mg
A (PKA activity) (PKA-Iβ; concentration 1.00E-05 μM): 4.53 U/mg
A (PKA activity) (PKA-Iβ; concentration 2.50E+01 μM): 1.31E+01 U/mg
A (PKA activity) (PKA-Iβ; concentration 2.50E+02 μM): 1.60E+01 U/mg
A (PKA activity) (PKA-Iβ; concentration 2.50E+03 μM): 1.79E+01 U/mg
EC50 (PKA-IIβ; PKA-IIβ): 50 µM
A (PKA activity) (PKA-IIβ; concentration 1 μM): 6.99 U/mg
A (PKA activity) (PKA-IIβ; concentration 1.00E+01 μM): 1.06E+01 U/mg
A (PKA activity) (PKA-IIβ; concentration 1.00E-01 μM): 6.554 U/mg
A (PKA activity) (PKA-IIβ; concentration 1.00E-05 μM): 2.8563 U/mg
A (PKA activity) (PKA-IIβ; concentration 2.50E+02 μM): 1.60E+01 U/mg
A (PKA activity) (PKA-IIβ; concentration 5.00E+01 μM): 1.46E+01 U/mg
A (PKA activity) (PKA-IIβ; concentration 5.00E+02 μM): 1.87E+01 U/mg
rel. P-VASP (PKA): 0.1351
activation of PKA in cells (PKA): only minor effects
kobs (Epac2^fl; 0.3 μM compound): 1.59e-05 s⁻¹
kobs (Epac2^fl; 0.5 μM compound): 1.62e-05 s⁻¹
kobs (Epac2^fl; 0.8 μM compound): 1.75e-05 s⁻¹
kobs (Epac2^fl; 1 μM compound): 1.95e-05 s⁻¹
kobs (Epac2^fl; 2 μM compound): 2.18e-05 s⁻¹
kobs (Epac2^fl; 3 μM compound): 2.37e-05 s⁻¹
kobs (Epac2^fl; 4 μM compound): 2.69e-05 s⁻¹
kobs (Epac2^fl; 5 μM compound): 2.86e-05 s⁻¹
kobs (Epac2^fl; 6 μM compound): 3.39e-05 s⁻¹
kobs (Epac2^fl; 7 μM compound): 3.51e-05 s⁻¹
kobs (Epac2^fl; 8 μM compound): 3.74e-05 s⁻¹
kobs (Epac2^fl; 10 μM compound): 4.22e-05 s⁻¹
kobs (Epac2^fl; 20 μM compound): 5.69e-05 s⁻¹
kobs (Epac2^fl; 30 μM compound): 7e-05 s⁻¹
kobs (Epac2^fl; 40 μM compound): 7.51e-05 s⁻¹
kobs (Epac2^fl; 50 μM compound): 7.76e-05 s⁻¹
kobs (Epac2^fl; 60 μM compound): 8.43e-05 s⁻¹
kobs (Epac2^fl; 70 μM compound): 8.92e-05 s⁻¹
kobs (Epac2^fl; 80 μM compound): 9.01e-05 s⁻¹
kobs (Epac2^fl; 100 μM compound): 9.57e-05 s⁻¹
kobs (Epac2^fl; 200 μM compound): 9.52e-05 s⁻¹
kobs (Epac2^fl; 400 μM compound): 9.57e-05 s⁻¹
kobs (Epac2^fl; 600 μM compound): 9.06e-05 s⁻¹
kobs (Epac2^fl; 800 μM compound): 8.29e-05 s⁻¹
ability to reach half-maximal cAMP activity (Epac2^fl; Epac2): reaches half-maximal cAMP activity with Epac2 only under saturating conditions
AC50 (Epac2^fl; Epac2^fl): 16 µM
Rel. kmax (Epac2^fl; Epac2^fl): 0.4
